Experimental data published in patent US20250163057A1, “DCN-1 MODULATING COMPOUNDS AND METHODS OF USE THEREOF” (Cellarity, Inc., priority 2023, published 2025).
pIC50: −log10 of the molar value. Where two headings read alike, the source gives them in different places.

Legend:
[1] = test system: Cullin-3 (CUL3) neddylation; experiment: AlphaLISA assay for Cullin-3 (CUL3) neddylation in TF 1 cells; assay type: cell-based; details: Homo sapiens, 3 hours treatment
In short: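 TF 1 cells in unsupplemented IMDM treated with compound concentrations for 3 h, then lysed. CUL3 neddylation detected by AlphaLISA (biotinylated anti-NEDD8, anti-CUL3 acceptor beads overnight, streptavidin donor beads 1 h); normalized to vehicle (0%) and 1 μM DI-1548 (100%), IC50 from Hill fits.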

[2] = molecular target: DCN1 (DCUND1) protein PONY domain (Homo sapiens (Human), UniProt Q96GG9); experiment: TR-FRET assay, DCN1 binding with FAM-labeled probe; details: for IC50: TR FRET IC50 1 hr (nM)
DCN1 (DCUND1) protein PONY domain, sequence (Q96GG9 60-248): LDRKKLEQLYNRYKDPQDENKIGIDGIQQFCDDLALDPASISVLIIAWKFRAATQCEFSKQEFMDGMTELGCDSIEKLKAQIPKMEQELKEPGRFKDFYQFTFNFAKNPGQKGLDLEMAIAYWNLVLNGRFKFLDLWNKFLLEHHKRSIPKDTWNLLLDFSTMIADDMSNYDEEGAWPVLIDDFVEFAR
In short: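 TR-FRET ratio (Tb-DCN1 to FAM-probe) read at 1, 5 and 24 hrs after compound addition. Protein: recombinant PONY domain from E. coli, biotinylated and coupled to streptavidin terbium. Either 5 nM DCN1 with 20 nM FAM-probe, or 0.31 nM DCN1 with 100 nM FAM-labelled plus 800 nM unlabelled probe.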

[3] = 24 hr after treatment with compound, read-out: TR FRET IC50 24 hr
[4] = 1 hr after treatment with compound
[5] = read-out: TR FRET IC50 1 hr, 1 hr after treatment with compound

| Structure (SMILES) | pIC50 ([1]; TF-1, 3 h) | pIC50 [2, 3] | IC50 [2, 4] [nM] | pIC50 [2, 5] | pIC50 [1] |
| --- | --- | --- | --- | --- | --- |
| CCN1C(=O)[C@H](NC(=O)c2cccc(C(F)(F)F)c2)[C@H](c2ccc(F)cc2)c2c([C@H](C)NC#N)nn(-c3ccccc3)c21 [Compound I-410] | 6.00 to 7.00 | 6.00 to 6.70 | 1000 to 3000 | – | – |
| CCN1C(=O)[C@@H](NC(=O)c2cccc(C(F)(F)F)c2)[C@@H](c2ccc(F)cc2)c2c([C@@H](C)NC#N)nn(C3CCOCC3)c21 [Compound I-412] | 6.00 to 7.00 | ≥ 6.70 | – | ≥ 6.70 | – |
| CCN1C(=O)[C@H](NC(=O)c2cccc(C(F)(F)F)c2)[C@H](c2ccc(F)cc2)c2c(C(=O)N(CC#N)C3CC3)nn(C3CCOCC3)c21 [Compound I-414] | < 6.00 | 5.52 to 6.00 | 1000 to 3000 | – | – |
| CCN1C(=O)[C@@H](NC(=O)c2cccc(C(F)(F)F)c2)[C@@H](c2ccc(F)cc2)c2c(C(=O)N3[C@H](C)CC[C@H]3C#N)nn(C3CCOCC3)c21 [Compound I-416] | 6.00 to 7.00 | 6.00 to 6.70 | 1000 to 3000 | – | – |
| CCN1C(=O)[C@@H](NC(=O)c2cccc(C(F)(F)F)c2)[C@@H](c2ccc(F)cc2)c2c(CN(C)CC#N)nn(-c3ccccc3)c21 [Compound I-417] | 6.00 to 7.00 | 6.00 to 6.70 | 1000 to 3000 | – | – |
| CCCn1nc(C(=O)N(CC#N)C2CC2)c2c1N(CC)C(=O)[C@@H](NC(=O)c1cccc(C(F)(F)F)c1)[C@H]2C1CC1 [Compound I-427] | 6.00 to 7.00 | 6.00 to 6.70 | 1000 to 3000 | – | – |
| CCCn1nc(C(=O)N2CCC[C@H]2C#N)c2c1N(CC)C(=O)[C@@H](NC(=O)c1cccc(C(F)(F)F)c1)[C@H]2c1ccc(F)cc1 [Compound I-428] | ≥ 7.00 | ≥ 6.70 | 200 to 1000 | – | – |
| CCN1C(=O)[C@@H](NC(=O)c2cccc(C(F)(F)F)c2)[C@@H](C2CC2)c2c(C(=O)N(C)[C@H](C#N)CCN(C)C3COC3)nn(C3CCOCC3)c21 [Compound I-429] | ≥ 7.00 | ≥ 6.70 | – | ≥ 6.70 | – |
| CCN1C(=O)[C@@H](NC(=O)c2ccn(C(F)F)n2)[C@@H](C2CC2)c2c(C(=O)N3[C@H](C#N)C[C@H]4C[C@H]43)nn(C3CCOCC3)c21 [Compound I-432] | 6.00 to 7.00 | ≥ 6.70 | 200 to 1000 | – | – |
| CCN1C(=O)[C@@H](NC(=O)c2cccc(C(F)(F)F)c2)[C@@H](C2CC2)c2c(C(=O)N3CCC=C3C#N)nn(C3CCOCC3)c21 [Compound I-437] | < 6.00 | ≥ 6.70 | 1000 to 3000 | – | – |
| CCN1C(=O)[C@@H](NC(=O)c2cccc(C(F)(F)F)c2)[C@@H](C2CC2)c2c(C(=O)N3CCS(=O)(=O)C[C@@H]3C#N)nn(-c3ccccc3)c21 [Compound I-438, N-((4S,5S)-3-((S)-3-cyano-1,1-dioxidothiomorpholine-4-carbonyl)-4-cyclopropyl-7-ethyl-6-oxo-1-phenyl-4,5,6,7-tetrahydro-1H-pyrazolo[3,4-b]pyridin-5-yl)-3-(trifluoromethyl)benzamide] | ≥ 7.00 | ≥ 6.70 | – | ≥ 6.70 | – |
| CCN1C(=O)[C@@H](NC(=O)c2cccc(C(F)(F)F)c2)[C@@H](c2ccc(F)cn2)c2c([C@@H](C)NC#N)nn(-c3ccccc3)c21 [Compound I-439] | ≥ 7.00 | ≥ 6.70 | – | ≥ 6.70 | – |
| CCN1C(=O)[C@@H](NC(=O)c2cccc(C(F)(F)F)c2)[C@@H](C2CC2)c2c(C(=O)N3[C@H](C#N)C[C@@H]4C[C@@H]43)nn(C3CCOCC3)c21 [Compound I-441] | < 6.00 | 6.00 to 6.70 | 1000 to 3000 | – | – |
| CCN1C(=O)[C@@H](NC(=O)c2cccc(C(F)(F)F)c2)[C@@H](C2CC2)c2c(C(=O)N3[C@@H]4C[C@@H]4C[C@@H]3C#N)nn(C3CCOCC3)c21 [Compound I-442] | < 6.00 | 6.00 to 6.70 | 1000 to 3000 | – | – |
| CCN1C(=O)[C@@H](NC(=O)c2cccc3c2OCC3)[C@@H](C2CC2)c2c(C(=O)N3[C@H](C#N)C[C@H]4C[C@H]43)nn(C3CCOCC3)c21 [Compound I-445] | – | ≥ 6.70 | – | ≥ 6.70 | ≥ 7.00 |
| CCN1C(=O)[C@@H](NC(=O)c2cccc3[nH]cnc23)[C@@H](C2CC2)c2c(C(=O)N3[C@H](C#N)C[C@H]4C[C@H]43)nn(C3CCOCC3)c21 [Compound I-446] | < 6.00 | 5.52 to 6.00 | 1000 to 3000 | – | – |
| CCN1C(=O)[C@@H](NC(=O)c2cccc(C(F)(F)F)c2)[C@@H](c2ccc(F)cc2)c2c(C(=O)N3[C@H](C#N)C[C@@H]4C[C@@H]43)nn(-c3ccccc3)c21 [Compound I-450] | 6.00 to 7.00 | 5.52 to 6.00 | 1000 to 3000 | – | – |
| CCN1C(=O)[C@@H](NC(=O)c2nccc(C(F)(F)F)n2)[C@H](c2ccc(F)cc2)c2c(CNC(=O)CC#N)nn(-c3ccccc3)c21 [Compound I-452, N-((4R,5S)-3-((2-cyanoacetamido)methyl)-7-ethyl-4-(4-fluorophenyl)-6-oxo-1-phenyl-4,5,6,7-tetrahydro-1H-pyrazolo[3,4-b]pyridin-5-yl)-4-(trifluoromethyl)pyrimidine-2-carboxamide] | < 6.00 | 5.52 to 6.00 | 1000 to 3000 | – | – |
| CCN1C(=O)[C@H](NC(=O)c2cccc(C(F)(F)F)c2)[C@H](c2ccc(F)cc2)c2c(C(=O)N3CCNC[C@H]3C#N)nn(-c3ccccc3)c21 [Compound I-453] | < 6.00 | 6.00 to 6.70 | 1000 to 3000 | – | – |
| CCN1C(=O)[C@@H](NC(=O)c2cccc(C(F)(F)F)c2)[C@@H](C2CC2)c2c(C(=O)N3CCC[C@H]3C#N)nn(C3CC3)c21 [Compound I-454] | ≥ 7.00 | 6.00 to 6.70 | 1000 to 3000 | – | – |
| CCCn1nc(C(=O)N(CC#N)C2CC2)c2c1N(CC)C(=O)[C@H](NC(=O)c1cccc(C(F)(F)F)c1)[C@@H]2C1CC1 [Compound I-455] | < 6.00 | 5.52 to 6.00 | 1000 to 3000 | – | – |
| CCN1C(=O)[C@H](NC(=O)c2cccc(C(F)(F)F)c2)[C@H](c2ccc(F)cc2)c2c(C(=O)N3CC[C@@H]3C#N)nn(-c3ccccc3)c21 [Compound I-457] | < 6.00 | 5.52 to 6.00 | 1000 to 3000 | – | – |
| CCN1C(=O)[C@@H](NC(=O)c2nccc(C(F)(F)F)n2)[C@H](c2ccc(F)cc2)c2c(CNC(=O)/C=C/C(=O)N(C)C)nn(-c3ccccc3)c21 [Compound I-460] | < 6.00 | 6.00 to 6.70 | 200 to 1000 | – | – |
| CCN1C(=O)[C@H](NC(=O)c2cccc(C(F)(F)F)c2)[C@H](c2ccc(F)cc2)c2c(C(=O)N3[C@H](C#N)C[C@@H]4C[C@@H]43)nn(-c3ccccc3)c21 [Compound I-463] | < 6.00 | 5.52 to 6.00 | 1000 to 3000 | – | – |
| CCN1C(=O)[C@@H](NC(=O)c2cccc(C(F)(F)F)c2)[C@@H](c2ccc(F)cc2)c2c(C(=O)N3CS(=O)(=O)C[C@H]3C#N)nn(-c3ccccc3)c21 [Compound I-465] | ≥ 7.00 | ≥ 6.70 | – | ≥ 6.70 | – |
| CCCn1nc(C(=O)N2CCC[C@H]2C#N)c2c1N(CC)C(=O)[C@@H](NC(=O)c1cccc(C(F)(F)F)c1)[C@H]2C1CC1 [Compound I-467] | 6.00 to 7.00 | ≥ 6.70 | 1000 to 3000 | – | – |
| CCN1C(=O)[C@@H](NC(=O)c2cccc(C(F)(F)F)c2)[C@@H](C2CCCC2)c2c(C(=O)N3CCC[C@H]3C#N)nn(C3CCOCC3)c21 [Compound I-469] | ≥ 7.00 | ≥ 6.70 | 1000 to 3000 | – | – |
| CCN1C(=O)[C@@H](NC(=O)c2cccc(C(F)(F)F)c2)[C@@H](c2ccc(F)cc2)c2c(C(=O)N(C)[C@H](C#N)CCN(C)C3COC3)nn(C3CCOCC3)c21 [Compound I-470] | ≥ 7.00 | ≥ 6.70 | – | ≥ 6.70 | – |
| COCCN1C(=O)[C@@H](NC(=O)c2cccc(C(F)(F)F)c2)[C@@H](C2CC2)c2c(C(=O)N3[C@H](C#N)C[C@H]4C[C@H]43)nn(C3CCOCC3)c21 [Compound I-474] | 6.00 to 7.00 | 6.00 to 6.70 | 1000 to 3000 | – | – |
| CCN1C(=O)[C@@H](NC(=O)CCc2ccccc2)[C@@H](C2CC2)c2c(C(=O)N3[C@H](C#N)C[C@H]4C[C@H]43)nn(C3CCOCC3)c21 [Compound I-476] | < 6.00 | 5.52 to 6.00 | 1000 to 3000 | – | – |
